Consider one compound from ChEMBL document CHEMBL4680110 (2018).

A word on the IC50: it is the midpoint of a concentration-inhibition curve. In general, inhibition refers to the change of the read-out against control, counted positive when it falls.

The source made the active and inactive calls. Peptide text beside a SMILES is read from it. * marks the point of attachment. Bz = O=C(c1ccccc1)* Some results are limits rather than exact numbers.

Test [1] deals with Neuronal acetylcholine receptor; alpha9/alpha10 (Homo sapiens, UniProt Q9GZZ6+Q9UGM1). In words: Inhibition of human alpha9alpha10 nAChR expressed in Xenopus laevis oocytes assessed as inhibition of Ach-induced response at -80 mV holding potential preincubated for 5 mins followed by Ach stimulation by two electrode voltage-clamp assay. The test is classed as cell-based, Oocyte.
The target in another test is GABA-B receptor (Homo sapiens, UniProt O75899+Q9UBS5). In words: Activation of human GABAB1/GABAB2 expressed in HEK293 cells co-transfected with rat CaV2.2 channel assessed as reduction in CaV2.2-mediated peak-current amplitude in response to the depolarizing pulse by whole cell patch clamp assay. The test is classed as cell-based, HEK293T. For orientation: Patch clamp records ionic current or voltage across a cell membrane.

Test [2] can be described thus: Selectivity index, ratio of IC50 for inhibition of human alpha9alpha10 nAChR expressed in Xenopus laevis oocytes to IC50 for activation of human GABAB1/GABAB2 expressed in HEK293 cells co-transfected with rat CaV2.2 channel assessed as reduction in CaV2.2-mediated peak-current amplitude. Format: cell-based.
Test [3] has as its system Rattus norvegicus. The test can be described thus: Analgesic activity in Sprague-Dawley rat model of PNL injury-induced neuropathic pain assessed as pain threshold elevation percentage at 15 nmol/kg, IM administered as single dose measured after 2 to 2.5 hrs post dose. Format: functional. As to conditions: time 2-2.5 hrs.
Test [4] deals with Nicotinic acetylcholine receptor alpha9/alpha10 (Rattus norvegicus, UniProt P43144+Q9JLB5). The test can be described thus: Inhibition of rat alpha9alpha10 nAChR expressed in Xenopus laevis oocytes assessed as inhibition of Ach-induced response at -80 mV holding potential preincubated for 5 mins followed by Ach stimulation by two electrode voltage-clamp assay. The test is classed as cell-based, Oocyte.

The target in test [5] is Neuronal acetylcholine receptor; alpha3/beta2 (Rattus norvegicus) (UniProt P04757+P12390). The test can be described thus: Inhibition of rat alpha3beta2 nAChR expressed in Xenopus laevis oocytes assessed as inhibition of Ach-induced response at 10 uM at -80 mV holding potential preincubated for 5 mins followed by Ach stimulation by two electrode voltage-clamp assay relative to control. The test is classed as cell-based. As to conditions: Oocyte.

Test [6] has as its target Neuronal acetylcholine receptor; alpha3/beta4 (Rattus norvegicus) (UniProt P04757+P12392). In words: Inhibition of rat alpha3beta4 nAChR expressed in Xenopus laevis oocytes assessed as inhibition of Ach-induced response at 10 uM at -80 mV holding potential preincubated for 5 mins followed by Ach stimulation by two electrode voltage-clamp assay relative to control. The test is classed as cell-based. The settings on record: Oocyte. For orientation: In two-electrode clamp one electrode senses voltage and the other passes current.

Test [7] concerns the target Neuronal acetylcholine receptor; alpha2/beta4 (Rattus norvegicus) (UniProt P12389+P12392). The test can be described thus: Inhibition of rat alpha2beta4 nAChR expressed in Xenopus laevis oocytes assessed as inhibition of Ach-induced response at 10 uM at -80 mV holding potential preincubated for 5 mins followed by Ach stimulation by two electrode voltage-clamp assay relative to control. As to conditions: Oocyte. The test is classed as cell-based.

The target in test [8] is Neuronal acetylcholine receptor; alpha2/beta2 (Rattus norvegicus) (UniProt P12389+P12390). The test can be described thus: Inhibition of rat alpha2beta2 nAChR expressed in Xenopus laevis oocytes assessed as inhibition of Ach-induced response at 10 uM at -80 mV holding potential preincubated for 5 mins followed by Ach stimulation by two electrode voltage-clamp assay relative to control. Format: cell-based. The settings on record: Oocyte.

Test [9] deals with Neuronal acetylcholine receptor; alpha4/beta2 (Rattus norvegicus) (UniProt P09483+P12390). The test can be described thus: Inhibition of rat alpha4beta2 nAChR expressed in Xenopus laevis oocytes assessed as inhibition of Ach-induced response at 10 uM at -80 mV holding potential preincubated for 5 mins followed by Ach stimulation by two electrode voltage-clamp assay relative to control. The settings on record: Oocyte. Format: cell-based.

Test [10] deals with Neuronal acetylcholine receptor subunit alpha-7 (Rattus norvegicus) (UniProt Q05941). In words: Inhibition of rat alpha7 nAChR expressed in Xenopus laevis oocytes assessed as inhibition of Ach-induced response at 10 uM at -80 mV holding potential preincubated for 5 mins followed by Ach stimulation by two electrode voltage-clamp assay relative to control. The settings on record: Oocyte. Format: cell-based.

For test [11], the target named is T1, GABA-B receptor (Homo sapiens) (UniProt Q9UBS5+O75899). In words: Activation of human GABAB1/GABAB2 expressed in HEK293 cells co-transfected with rat CaV2.2 channel assessed as reduction in CaV2.2-mediated Ba2+ peak-current amplitude in response to depolarizing pulse in presence of 1 uM GABAB receptor antagonist CGP55845 by whole cell patch clamp assay. Format: cell-based. The settings on record: HEK293T, time 6.0 hrs.

The species named for test [12] is Rattus norvegicus. The test can be described thus: Inhibition of TTX-resistant sodium channel in Sprague-Dawley rat DRG neuron at 10 uM at 10 mV holding potential by whole cell patch clamp technique.
The next test concerns Neuron. In words: Inhibition of TTX-sensitive sodium channel in Sprague-Dawley rat DRG neuron at 10 uM at -10 mV holding potential by whole cell patch clamp technique. The test is classed as tissue-based.
Test [13] in a line: Selectivity index, ratio of IC50 for inhibition of rat alpha9alpha10 nAChR expressed in Xenopus laevis oocytes to IC50 for activation of human GABAB1/GABAB2 expressed in HEK293 cells co-transfected with rat CaV2.2 channel assessed as reduction in CaV2.2-mediated peak Ba2+ current amplitude. The test is classed as cell-based.
The target of test [14] is T1, GABA-B receptor (Homo sapiens). In words: Activation of human GABAB1/GABAB2 expressed in HEK293 cells co-transfected with rat CaV2.2 channel assessed as reduction in CaV2.2-mediated peak-current amplitude in response to depolarizing pulse at 1 nM by whole cell patch clamp assay relative to control. Format: cell-based. The settings on record: HEK293T.
The target is the same in test [15]. In words: Activation of human GABAB1/GABAB2 expressed in HEK293 cells co-transfected with rat CaV2.2 channel assessed as reduction in CaV2.2-mediated peak-current amplitude in response to depolarizing pulse at 1 nM in presence of with 10 uM baclofen by whole cell patch clamp assay relative to control. Format: cell-based. As to conditions: HEK293T, filed as activator.

Test [16] concerns the target Voltage-dependent N-type calcium channel subunit alpha-1B (Rattus norvegicus) (UniProt Q02294). In words: Inhibition of rat CaV2.2 channel expressed in HEK293T cells assessed as reduction in CaV2.2-mediated peak-current amplitude in response to depolarizing pulse at 10 uM by whole cell patch clamp assay relative to control. The test is classed as cell-based.

Voltage-dependent N-type calcium channel subunit alpha-1B (Rattus norvegicus), sequence (Q02294 whole entry, looked up): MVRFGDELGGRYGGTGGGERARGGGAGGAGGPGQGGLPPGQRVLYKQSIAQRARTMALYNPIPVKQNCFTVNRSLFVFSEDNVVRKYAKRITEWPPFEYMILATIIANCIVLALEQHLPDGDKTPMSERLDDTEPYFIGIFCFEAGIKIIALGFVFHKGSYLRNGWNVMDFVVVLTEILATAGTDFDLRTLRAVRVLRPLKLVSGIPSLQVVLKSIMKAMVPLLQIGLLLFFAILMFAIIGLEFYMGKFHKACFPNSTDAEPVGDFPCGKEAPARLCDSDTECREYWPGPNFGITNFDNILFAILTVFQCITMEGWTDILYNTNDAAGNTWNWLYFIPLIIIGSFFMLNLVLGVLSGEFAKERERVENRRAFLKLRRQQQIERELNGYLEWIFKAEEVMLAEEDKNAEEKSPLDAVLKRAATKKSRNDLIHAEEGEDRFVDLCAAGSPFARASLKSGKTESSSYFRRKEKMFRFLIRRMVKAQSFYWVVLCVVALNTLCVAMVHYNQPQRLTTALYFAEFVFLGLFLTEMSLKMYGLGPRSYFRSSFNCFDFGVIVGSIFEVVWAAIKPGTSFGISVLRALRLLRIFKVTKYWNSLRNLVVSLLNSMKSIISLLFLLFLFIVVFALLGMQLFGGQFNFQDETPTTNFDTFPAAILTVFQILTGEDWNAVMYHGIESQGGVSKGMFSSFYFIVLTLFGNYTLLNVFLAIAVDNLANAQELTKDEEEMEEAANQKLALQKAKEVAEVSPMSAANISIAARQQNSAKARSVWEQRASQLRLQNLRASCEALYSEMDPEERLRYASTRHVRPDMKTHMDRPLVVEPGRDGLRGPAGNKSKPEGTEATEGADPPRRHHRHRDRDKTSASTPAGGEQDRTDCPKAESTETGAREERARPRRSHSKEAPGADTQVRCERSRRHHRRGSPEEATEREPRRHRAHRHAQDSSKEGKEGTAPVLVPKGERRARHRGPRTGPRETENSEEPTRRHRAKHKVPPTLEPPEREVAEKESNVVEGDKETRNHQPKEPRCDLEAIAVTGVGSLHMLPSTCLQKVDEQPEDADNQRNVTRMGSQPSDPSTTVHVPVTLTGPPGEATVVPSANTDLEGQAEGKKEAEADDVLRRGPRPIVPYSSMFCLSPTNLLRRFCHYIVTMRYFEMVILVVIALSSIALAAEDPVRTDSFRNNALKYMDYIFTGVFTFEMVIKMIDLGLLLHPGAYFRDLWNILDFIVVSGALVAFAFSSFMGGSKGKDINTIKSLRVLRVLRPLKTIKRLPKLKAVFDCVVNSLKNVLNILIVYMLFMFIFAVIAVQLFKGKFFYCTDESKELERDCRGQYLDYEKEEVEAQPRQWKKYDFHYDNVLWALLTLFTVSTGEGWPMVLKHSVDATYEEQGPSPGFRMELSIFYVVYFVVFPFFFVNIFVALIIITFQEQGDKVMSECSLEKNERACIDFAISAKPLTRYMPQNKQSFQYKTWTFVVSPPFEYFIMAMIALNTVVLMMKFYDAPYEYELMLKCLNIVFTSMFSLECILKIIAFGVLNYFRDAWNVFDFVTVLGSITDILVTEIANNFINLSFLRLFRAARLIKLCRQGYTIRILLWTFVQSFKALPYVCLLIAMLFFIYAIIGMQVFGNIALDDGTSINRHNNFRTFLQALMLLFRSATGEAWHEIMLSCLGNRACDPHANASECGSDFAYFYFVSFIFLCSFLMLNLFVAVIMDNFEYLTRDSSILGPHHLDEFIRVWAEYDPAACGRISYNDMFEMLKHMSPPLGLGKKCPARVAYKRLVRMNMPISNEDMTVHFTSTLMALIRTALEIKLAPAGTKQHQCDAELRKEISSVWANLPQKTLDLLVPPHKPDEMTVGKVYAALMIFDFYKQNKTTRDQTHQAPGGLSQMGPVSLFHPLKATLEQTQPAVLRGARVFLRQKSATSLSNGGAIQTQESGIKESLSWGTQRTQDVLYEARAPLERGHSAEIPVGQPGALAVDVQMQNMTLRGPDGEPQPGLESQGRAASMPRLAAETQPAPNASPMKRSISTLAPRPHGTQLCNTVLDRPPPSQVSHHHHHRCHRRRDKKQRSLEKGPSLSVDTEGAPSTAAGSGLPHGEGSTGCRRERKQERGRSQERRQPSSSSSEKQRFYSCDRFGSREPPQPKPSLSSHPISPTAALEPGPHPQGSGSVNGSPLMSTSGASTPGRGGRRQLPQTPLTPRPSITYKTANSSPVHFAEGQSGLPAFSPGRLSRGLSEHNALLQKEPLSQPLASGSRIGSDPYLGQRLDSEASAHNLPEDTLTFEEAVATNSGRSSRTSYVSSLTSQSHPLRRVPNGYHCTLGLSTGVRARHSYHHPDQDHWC
Neuronal acetylcholine receptor subunit alpha-7 (Rattus norvegicus), sequence (Q05941 whole entry): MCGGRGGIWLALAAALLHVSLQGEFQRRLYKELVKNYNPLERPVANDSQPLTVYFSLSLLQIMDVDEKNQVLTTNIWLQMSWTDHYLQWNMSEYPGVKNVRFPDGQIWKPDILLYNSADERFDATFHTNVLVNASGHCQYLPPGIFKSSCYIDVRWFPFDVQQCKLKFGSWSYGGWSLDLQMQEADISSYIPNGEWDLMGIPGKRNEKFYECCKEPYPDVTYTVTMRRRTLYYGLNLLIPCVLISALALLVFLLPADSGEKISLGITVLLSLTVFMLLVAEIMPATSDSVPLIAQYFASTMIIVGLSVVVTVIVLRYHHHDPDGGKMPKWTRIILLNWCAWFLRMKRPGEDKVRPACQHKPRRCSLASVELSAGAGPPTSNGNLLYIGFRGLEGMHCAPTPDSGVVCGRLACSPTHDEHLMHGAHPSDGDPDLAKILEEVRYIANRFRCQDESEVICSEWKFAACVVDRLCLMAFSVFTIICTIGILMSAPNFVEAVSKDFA
Neuronal acetylcholine receptor; alpha9/alpha10, sequence (Q9UGM1 whole entry): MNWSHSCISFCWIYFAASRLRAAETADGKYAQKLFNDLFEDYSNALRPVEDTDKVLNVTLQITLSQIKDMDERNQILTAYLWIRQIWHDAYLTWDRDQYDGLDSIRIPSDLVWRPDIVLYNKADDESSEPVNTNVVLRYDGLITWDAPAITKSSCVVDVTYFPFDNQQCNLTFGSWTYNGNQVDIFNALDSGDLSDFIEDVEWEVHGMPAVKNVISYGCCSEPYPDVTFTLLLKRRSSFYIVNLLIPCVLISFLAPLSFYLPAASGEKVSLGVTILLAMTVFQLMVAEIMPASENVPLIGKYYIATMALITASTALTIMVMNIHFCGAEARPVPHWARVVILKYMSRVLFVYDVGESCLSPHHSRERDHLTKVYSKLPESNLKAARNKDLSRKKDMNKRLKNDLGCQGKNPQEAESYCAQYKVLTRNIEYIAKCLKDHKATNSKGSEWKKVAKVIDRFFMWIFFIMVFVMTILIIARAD
Neuronal acetylcholine receptor; alpha9/alpha10, sequence (Q9GZZ6 whole entry): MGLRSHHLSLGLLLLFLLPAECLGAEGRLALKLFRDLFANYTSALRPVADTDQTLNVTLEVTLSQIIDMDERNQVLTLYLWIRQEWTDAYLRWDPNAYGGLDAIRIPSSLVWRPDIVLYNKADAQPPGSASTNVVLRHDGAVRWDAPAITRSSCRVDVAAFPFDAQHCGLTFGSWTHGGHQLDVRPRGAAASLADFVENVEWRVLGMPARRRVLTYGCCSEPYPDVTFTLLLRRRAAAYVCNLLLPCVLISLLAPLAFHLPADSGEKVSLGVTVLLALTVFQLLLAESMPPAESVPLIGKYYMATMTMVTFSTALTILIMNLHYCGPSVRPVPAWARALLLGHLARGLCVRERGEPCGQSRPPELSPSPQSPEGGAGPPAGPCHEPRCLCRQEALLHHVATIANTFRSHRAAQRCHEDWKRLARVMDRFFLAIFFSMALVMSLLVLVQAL
Nicotinic acetylcholine receptor alpha9/alpha10, sequence (P43144 whole entry): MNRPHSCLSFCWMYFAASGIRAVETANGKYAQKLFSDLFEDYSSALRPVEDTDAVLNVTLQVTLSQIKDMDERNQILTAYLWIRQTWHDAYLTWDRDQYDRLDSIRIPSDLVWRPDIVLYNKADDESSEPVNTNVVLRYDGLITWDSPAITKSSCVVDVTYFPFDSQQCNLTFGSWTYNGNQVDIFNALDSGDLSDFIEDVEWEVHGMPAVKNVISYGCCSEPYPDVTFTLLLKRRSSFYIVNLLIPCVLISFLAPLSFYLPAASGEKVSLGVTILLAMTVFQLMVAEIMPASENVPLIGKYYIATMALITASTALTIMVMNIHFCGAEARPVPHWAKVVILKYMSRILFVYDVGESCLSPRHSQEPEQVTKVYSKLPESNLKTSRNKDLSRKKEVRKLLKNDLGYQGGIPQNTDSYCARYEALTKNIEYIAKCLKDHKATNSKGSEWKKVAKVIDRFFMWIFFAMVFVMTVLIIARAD
Nicotinic acetylcholine receptor alpha9/alpha10, sequence (Q9JLB5 whole entry): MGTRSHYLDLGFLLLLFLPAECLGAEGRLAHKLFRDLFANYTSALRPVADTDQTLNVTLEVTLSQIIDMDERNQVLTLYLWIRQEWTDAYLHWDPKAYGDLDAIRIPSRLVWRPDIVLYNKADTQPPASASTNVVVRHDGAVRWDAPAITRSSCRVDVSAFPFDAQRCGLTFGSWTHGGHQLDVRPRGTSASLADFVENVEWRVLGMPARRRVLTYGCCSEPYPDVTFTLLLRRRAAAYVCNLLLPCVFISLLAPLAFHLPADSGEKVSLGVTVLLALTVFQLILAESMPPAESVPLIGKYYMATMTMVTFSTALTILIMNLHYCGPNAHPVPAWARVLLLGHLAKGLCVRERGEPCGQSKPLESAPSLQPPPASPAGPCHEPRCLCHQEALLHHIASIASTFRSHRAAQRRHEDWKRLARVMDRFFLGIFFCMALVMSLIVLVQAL

Consider `CC[C@H](C)[C@H](NC(=O)[C@H](CCC(=O)O)NC(=O)[C@@H]1CCCN1C(=O)[C@H](Cc1cnc[nH]1)NC(=O)[C@H](CC(=O)O)NC(=O)[C@H](Cc1ccc(O)cc1)NC(=O)[C@H](CCCNC(=N)N)NC(=O)[C@H](CS)NC(=O)[C@H](CCCNC(=N)N)NC(=O)[C@@H]1CCCN1C(=O)[C@H](CC(=O)O)NC(=O)[C@H](CO)NC(=O)[C@H](CS)NC(=O)[C@H](CS)NC(=O)CNC(=O)c1ccccc1)C(=O)N[C@@H](CS)C(N)=O` (Bz-GCCSDPRCRYDHPEIC-NH2), for which the IC50 in test [1] stood at 5930 nM; at GABA-B receptor, 0.2 nM; in test [4] it was 875 nM. Besides, the Ratio IC50 in test [2] is more than 25000; in test [13], 4380. For the same compound, the Activity in the test on Rattus norvegicus [3] was 80%. In addition, the inhibition in test [5], in [6], in test [7], in [8], in [9] and in [10] was more than 50% each time. Further, the inhibition in test [14] stood at 39.7%; in test [15], 67.4%; in [16], 2.2%. For the same compound, the outcome in [11] was inactive. Besides, the inhibition entry in the test listed under Rattus norvegicus [12] and in the test on Neuron was “inactive” each time.
